Among the data in PubChem BioAssay AID248 (DTP/NCI, 2004) are T/C values, retold here.

Several values for one entry are separate records, joined by “and”; a condition that tells them apart may be missing. Identical values can stand only once. Inconclusive results and toxic doses are left out.

The subject of this assay is L1210 leukemia ip in BDF1 mice, survival T/C. Kind of assay: NCI In Vivo Anticancer Drug Screen. Data for tumor model L1210 Leukemia (intraperitoneal) in B6D2F1 (BDF1) mice. The settings on record: endpoint: mean survival time, higher = longer survival. The method in brief:
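In this screen, tumor-bearing mice given compound are compared to those given vehicle, and their survival values are reported as a treated-to-control quotient.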

Where [1] appears, read: dose: 100.0 mg/kg/injection, schedule: Q04DX003 (ip), vehicle: saline with Tween-80.
Where [2] appears, read: dose: 200.0 mg/kg/injection, schedule: Q04DX003 (ip), vehicle: saline with Tween-80.
[3] abbreviates: dose: 400.0 mg/kg/injection, schedule: Q04DX003 (ip), vehicle: saline with Tween-80.
The mark [4] stands for this setting: dose: 100.0 mg/kg/injection, schedule: Q01DX001 (ip), vehicle: saline.
Setting [5] is: dose: 200.0 mg/kg/injection, schedule: Q01DX001 (ip), vehicle: saline.
Where [6] appears, read: dose: 50.0 mg/kg/injection, schedule: Q01DX009 (ip), vehicle: saline with Tween-80.
[7] abbreviates: dose: 100.0 mg/kg/injection, schedule: Q01DX009 (ip), vehicle: saline with Tween-80.
[8] abbreviates: dose: 200.0 mg/kg/injection, schedule: Q01DX009 (ip), vehicle: saline with Tween-80.
[9] abbreviates: dose: 100.0 mg/kg/injection, schedule: Q04DX003 (ip), vehicle: Klucel (hydroxypropylcellulose) (HPC).
[10] abbreviates: dose: 200.0 mg/kg/injection, schedule: Q04DX003 (ip), vehicle: Klucel (hydroxypropylcellulose) (HPC).
[11] abbreviates: dose: 400.0 mg/kg/injection, schedule: Q04DX003 (ip), vehicle: Klucel (hydroxypropylcellulose) (HPC).
Where [12] appears, read: dose: 100.0 mg/kg/injection, schedule: Q01DX009 (ip), vehicle: Klucel (hydroxypropylcellulose) (HPC).
Setting [13] is: dose: 200.0 mg/kg/injection, schedule: Q01DX009 (ip), vehicle: Klucel (hydroxypropylcellulose) (HPC).
The mark [14] stands for this setting: dose: 400.0 mg/kg/injection, schedule: Q01DX009 (ip), vehicle: Klucel (hydroxypropylcellulose) (HPC).
Where [15] appears, read: dose: 50.0 mg/kg/injection, schedule: Q01DX009 (ip), vehicle: Klucel (hydroxypropylcellulose) (HPC).

With `O=c1cc(CO)occ1O.O=c1cc(CO)occ1O.[O]=[V]`, the T/C runs as follows: (dose: 4.0 mg/kg/injection, schedule: Q01DX015 (ip), vehicle: carboxymethylcellulose (CMC)) 101 % of control; (dose: 8.0 mg/kg/injection, schedule: Q01DX015 (ip), vehicle: carboxymethylcellulose (CMC)) 105 % of control; (dose: 12.5 mg/kg/injection, schedule: Q01DX009 (ip), vehicle: saline) 87 % of control; (dose: 12.5 mg/kg/injection, schedule: Q04DX003 (ip), vehicle: saline) 92 % of control; (dose: 16.0 mg/kg/injection, schedule: Q01DX015 (ip), vehicle: carboxymethylcellulose (CMC)) 106 % of control; (dose: 25.0 mg/kg/injection, schedule: Q01DX009 (ip), vehicle: saline) 92 % of control. The T/C (dose: 25.0 mg/kg/injection, schedule: Q04DX003 (ip), vehicle: saline) was 91 % of control and the T/C (dose: 50.0 mg/kg/injection, schedule: Q04DX003 (ip), vehicle: saline) is 102 % of control.

Take `CSc1cccc(Cl)c1`: the T/C runs as follows: (dose: 75.0 mg/kg/injection, schedule: Q01DX001 (ip), vehicle: saline) 100 % of control; (dose: 150.0 mg/kg/injection, schedule: Q01DX001 (ip), vehicle: saline) 101 % of control.

Turning to `O=C(Nc1ccccc1)Nc1cccc([N+](=O)[O-])c1`, the T/C reads like this: (dose: 100.0 mg/kg/injection, schedule: Q04DX002 (ip), vehicle: saline) 100 % of control; (dose: 200.0 mg/kg/injection, schedule: Q04DX002 (ip), vehicle: saline) 92 % of control; (dose: 400.0 mg/kg/injection, schedule: Q04DX002 (ip), vehicle: saline) 103 % of control.

For `CCN(CC)c1ccc2c(c1)Cc1ccccc1-2`, the T/C reads like this: under setting [1], 100 % of control; under setting [2], 98 % of control; under setting [3], 100 % of control.

Consider `CCCCCCC(c1ccccc1)c1ccccc1`, for which the T/C is, setting by setting: under setting [4], 100 % of control; under setting [5], 97 % of control; (dose: 400.0 mg/kg/injection, schedule: Q01DX001 (ip), vehicle: saline) 100 % of control.

Turning to `O=C1N(Cl)C(=O)C(c2ccc(C(F)(F)F)cc2)(c2ccc(C(F)(F)F)cc2)N1Cl`, the T/C is 88 % of control under setting [6], 100 % of control under setting [7], 102 % of control under setting [1] and 100 % of control under setting [2].

As for `COc1cc(/C=N/NC(=O)CCCCCCCCC(=O)N/N=C/c2ccc(O)c(OC)c2)ccc1O`, the T/C under setting [6] was 95 % of control and 97 % of control; the T/C (dose: 100.0 mg/kg/injection, schedule: Q01DX001 (ip), vehicle: saline with Tween-80) was 92 % of control; the T/C under setting [7] is 93 % of control and 91 % of control; the T/C (dose: 100.0 mg/kg/injection, schedule: Q04DX002 (ip), vehicle: saline with Tween-80) was 101 % of control; the T/C under setting [1] is 87 % of control; the T/C (dose: 200.0 mg/kg/injection, schedule: Q01DX001 (ip), vehicle: saline with Tween-80) was 95 % of control. Also, the T/C was 94 % of control and 100 % of control under setting [8]; 93 % of control and 103 % of control (dose: 200.0 mg/kg/injection, schedule: Q04DX002 (ip), vehicle: saline with Tween-80); 97 % of control under setting [2]; 92 % of control (dose: 400.0 mg/kg/injection, schedule: Q01DX001 (ip), vehicle: saline with Tween-80); 90 % of control (dose: 400.0 mg/kg/injection, schedule: Q04DX002 (ip), vehicle: saline with Tween-80); 101 % of control under setting [3].

As to `O=C(O)C(c1ccccc1)C1CCCC1` (stereo not given), the T/C reads like this: under setting [6], 102 % of control; under setting [7], 105 % of control; under setting [9], 98 % of control; under setting [8], 100 % of control; under setting [10], 100 % of control; under setting [11], 98 % of control.

Turning to `CNC(=N)c1ccc(NC(=N)c2ccc(NC(=O)Nc3ccc(NC(=O)Nc4ccc(C(=N)Nc5ccc(C(=N)NC)cc5)cc4)cc3)cc2)cc1`, the T/C runs as follows: (dose: 0.5 mg/kg/injection, schedule: Q01DX015 (ip), vehicle: water) 103 % of control; (dose: 1.0 mg/kg/injection, schedule: Q01DX015 (ip), vehicle: water) 116 % of control; (dose: 2.0 mg/kg/injection, schedule: Q01DX015 (ip), vehicle: water) 152 % of control; (dose: 5.0 mg/kg/injection, schedule: Q01DX Z (ip), vehicle: water) 156 % of control; (dose: 7.5 mg/kg/injection, schedule: Q01DX Z (ip), vehicle: water) 180 % of control; (dose: 10.0 mg/kg/injection, schedule: Q01DX Z (ip), vehicle: water) 150 % of control. For the same compound, the T/C by setting is: (dose: 15.0 mg/kg/injection, schedule: Q01DX Z (ip), vehicle: water) 161 % of control; (dose: 20.0 mg/kg/injection, schedule: Q01DX Z (ip), vehicle: water) 104 % of control; (dose: 30.0 mg/kg/injection, schedule: Q01DX Z (ip), vehicle: water) 87 % of control; (dose: 35.7 mg/kg/injection, schedule: Q01DX Z (ip), vehicle: water) 101 % of control.

With `CC1(C)N=C(N)N=C(N)N1c1cccc(S(=O)(=O)F)c1`, the T/C is, setting by setting: (dose: 0.8 mg/kg/injection, schedule: Q01DX009 (ip), vehicle: saline) 95 % of control; (dose: 4.0 mg/kg/injection, schedule: Q01DX009 (ip), vehicle: saline) 95 % of control; (dose: 20.0 mg/kg/injection, schedule: Q01DX009 (ip), vehicle: saline) 100 % of control; under setting [4], 100 % of control; under setting [5], 102 % of control.

As for `N#C/C(=C\C=C\c1ccccc1)c1cccc(Cl)c1`, the T/C (dose: 87.5 mg/kg/injection, schedule: Q01DX009 (ip), vehicle: Klucel (hydroxypropylcellulose) (HPC)) was 89 % of control; the T/C (dose: 175.0 mg/kg/injection, schedule: Q01DX009 (ip), vehicle: Klucel (hydroxypropylcellulose) (HPC)) was 92 % of control; the T/C (dose: 350.0 mg/kg/injection, schedule: Q01DX009 (ip), vehicle: Klucel (hydroxypropylcellulose) (HPC)) is 101 % of control.

On to `COC(=O)CCSC(c1ccccc1)(c1ccccc1)c1ccccc1`, for which the T/C under setting [12] was 104 % of control; the T/C under setting [9] was 96 % of control; the T/C under setting [13] is 94 % of control; the T/C under setting [10] was 93 % of control; the T/C under setting [14] is 100 % of control; the T/C under setting [11] is 93 % of control.

As for `COc1ccc(NC(=O)COc2ccc(Cl)cc2)cc1`, the T/C reads like this: under setting [12], 93 % of control; under setting [9], 100 % of control; under setting [13], 90 % of control; under setting [10], 106 % of control; under setting [14], 92 % of control; under setting [11], 93 % of control.

For the compound `CCOC(=O)P(=O)(OCC)OCC`, the T/C by setting is: (dose: 100.0 mg/kg/injection, schedule: Q01DX001 (ip), vehicle: carboxymethylcellulose (CMC)) 101 % of control; (dose: 200.0 mg/kg/injection, schedule: Q01DX001 (ip), vehicle: carboxymethylcellulose (CMC)) 95 % of control; (dose: 400.0 mg/kg/injection, schedule: Q01DX001 (ip), vehicle: carboxymethylcellulose (CMC)) 104 % of control.

Take `C[C@]12CCC(=O)C=C1CC[C@@H]1[C@@H]2CC[C@@]2(C)[C@H]1CC[C@]2(C)O`: the T/C is 95 % of control (dose: 100.0 mg/kg/injection, schedule: Q04DX003 (sc), vehicle: steriod suspending solution); 102 % of control (dose: 200.0 mg/kg/injection, schedule: Q04DX003 (sc), vehicle: steriod suspending solution); 97 % of control (dose: 400.0 mg/kg/injection, schedule: Q04DX003 (sc), vehicle: steriod suspending solution).

Regarding `O=C(O)c1ccc2c(c1)NC(c1cccc3ccccc13)NC2=O` (stereo not given), the T/C is, setting by setting: under setting [15], 93 % of control; under setting [12], 94 % of control; (dose: 150.0 mg/kg/injection, schedule: Q01DX009 (ip), vehicle: Klucel (hydroxypropylcellulose) (HPC)) 96 % of control.

For the compound `C=CCOCC(O)CN(CCC(C)C)CCC(C)C` (stereo not given), the T/C runs as follows: (dose: 25.0 mg/kg/injection, schedule: Q01DX009 (ip), vehicle: Klucel (hydroxypropylcellulose) (HPC)) 95 % of control; under setting [15], 97 % of control; under setting [12], 96 % of control and 100 % of control; under setting [9], 102 % of control; under setting [10], 91 % of control.
